In publication PMC11129975, “A first-in-human phase I study of TAS-117, an allosteric AKT inhibitor, in patients with advanced solid tumors” (Cancer Chemotherapy and Pharmacology, 2024):

Experiment: Phase I safety: adverse events, adverse drug reactions, DLTs in patients with advanced solid tumors
Assay type: in vivo, human
Description: This was a phase I, open-label, non-randomized, dose-escalating first-in-human study to evaluate the safety, pharmacokinetics, antitumor activity, pharmacodynamics, and pharmacogenomics of TAS-117 in patients with advanced solid tumors. The study had three phases: a dose escalation phase (DEP), a regimen modification phase (RMP), and a safety assessment phase (SAP). The treatment cycle on each regimen lasted 21 days. The DEP used an accelerated titration and 3 + 3 design. TAS-117 was administered orally once daily (QD) on an empty stomach (1 h before or 2 h after a meal). Dosing was determined based on a 4-week repeated oral-dose toxicology study in monkeys (data on file, Taiho Pharmaceutical Co., Ltd.); the highest non-severely toxic dose was 1.2 mg/kg/day, which was converted to 3.84 mg/body/day, or 2.4 mg/m^2. Therefore, the starting dose was determined to be ≤ 2.4 mg/m^2. At dose level 1, TAS-117 was administered at 2 mg QD (Day − 2), and the dose was increased to 4 mg QD after 2 days (Day 1). The RMP was conducted according to a 3 + 3 design. During this phase, the dose regimen was changed from QD administration to intermittent dosing of daily TAS-117 with 4 days on/3 days off. TAS-117 was administered on an empty stomach. Dose-limiting toxicities (DLTs) were evaluated in Cycle 1 of the DEP and RMP. […] The RD and regimen for the SAP were determined based on the safety, pharmacokinetics, pharmacodynamics, and antitumor activity profile determined in the DEP and RMP. During the SAP, the safety and preliminary efficacy profiles of TAS-117 were assessed at the RD and recommended regimen. Three cohorts were included in this assessment. Cohort 1 included patients with endometrial cancer with a PIK3CA mutation; cohort 2 included patients with endometrial cancer with an AKT1 mutation, AKT1 amplification, or AKT2 amplification; and cohort 3 included patients with ovarian clear cell carcinoma.
The primary endpoints were the proportion of patients who experienced DLTs in Cycle 1 of the DEP and RMP and the incidence of adverse events (AEs) and adverse drug reactions (ADRs) in the SAP. AEs and ADRs were coded using the Medical Dictionary for Regulatory Activities (MedDRA; version 24.1) and graded according to the National Cancer Institute Common Terminology Criteria for Adverse Events (CTCAE; version 4.03). Secondary endpoints were pharmacokinetic findings, changes in the ratio of phosphorylated PRAS40 (pPRAS40)/total PRAS40 from baseline, efficacy, and pharmacogenomics findings.

C[C@]1(O)C[C@@](N)(c2ccc(-c3nc4n(c3-c3ccccc3)COc3ccncc3-4)cc2)C1 [TAS-117]
0 (0.0) n (%): Adverse drug reactions: ALT increased (RMP n = 10, All grade) | Adverse drug reactions: ALT increased (RMP n = 10, ≥ Grade 3) | Adverse drug reactions: AST increased (RMP n = 10, ≥ Grade 3) | Adverse drug reactions: Blood AP increased (RMP n = 10, ≥ Grade 3) | Adverse drug reactions: Decreased appetite (RMP n = 10, ≥ Grade 3) | Adverse drug reactions: Diarrhea (RMP n = 10, ≥ Grade 3) | Adverse drug reactions: Dry skin (RMP n = 10, ≥ Grade 3) | Adverse drug reactions: GI disorders (RMP n = 10, ≥ Grade 3) | Adverse drug reactions: General disorders and administration site conditions (RMP n = 10, ≥ Grade 3) | Adverse drug reactions: Nausea (RMP n = 10, ≥ Grade 3) | Adverse drug reactions: Neutrophil count decreased (RMP n = 10, ≥ Grade 3) | Adverse drug reactions: Pruritus (RMP n = 10, ≥ Grade 3) | Adverse drug reactions: Pyrexia (RMP n = 10, ≥ Grade 3) | Adverse drug reactions: Stomatitis (RMP n = 10, ≥ Grade 3) | Adverse drug reactions: Vomiting (RMP n = 10, ≥ Grade 3) | Adverse events: ALT increased (RMP n = 10, ≥ Grade 3) | Adverse events: AST increased (RMP n = 10, ≥ Grade 3) | Adverse events: Blood AP increased (RMP n = 10, ≥ Grade 3) | Adverse events: Decreased appetite (RMP n = 10, ≥ Grade 3) | Adverse events: Dry skin (RMP n = 10, ≥ Grade 3) | Adverse events: General disorders and administration site conditions (RMP n = 10, ≥ Grade 3) | Adverse events: Nausea (RMP n = 10, ≥ Grade 3) | Adverse events: Neutrophil count decreased (RMP n = 10, ≥ Grade 3) | Adverse events: Pruritus (RMP n = 10, ≥ Grade 3) | Adverse events: Pyrexia (RMP n = 10, ≥ Grade 3) | Adverse events: Stomatitis (RMP n = 10, ≥ Grade 3) | Adverse events: Vomiting (RMP n = 10, ≥ Grade 3)
2 (20.0) n (%): Adverse drug reactions: Diarrhea (RMP n = 10, All grade) | Adverse drug reactions: GGT increased (RMP n = 10, All grade) | Adverse events: AST increased (RMP n = 10, All grade) | Adverse events: GGT increased (RMP n = 10, All grade) | Adverse events: Vomiting (RMP n = 10, All grade) | Adverse drug reactions: Hyperglycemia (RMP n = 10, ≥ Grade 3) | Adverse drug reactions: Metabolism and nutrition disorders (RMP n = 10, ≥ Grade 3) | Adverse drug reactions: WBC count decreased (RMP n = 10, ≥ Grade 3) | Adverse events: GI disorders (RMP n = 10, ≥ Grade 3) | Adverse events: Hyperglycemia (RMP n = 10, ≥ Grade 3) | Adverse events: Metabolism and nutrition disorders (RMP n = 10, ≥ Grade 3) | Adverse events: WBC count decreased (RMP n = 10, ≥ Grade 3)
two of three patients: Grade 3 maculopapular rash with treatment interruption and/or dose reduction (RMP dose level 5 (32 mg), Cycle 1 and Cycle 2)
6 (60.0) n (%): Adverse drug reactions: Investigations (RMP n = 10, All grade) | Adverse events: Pyrexia (RMP n = 10, All grade) | Adverse drug reactions: Any events (RMP n = 10, ≥ Grade 3)
10 (100.0) n (%): Adverse drug reactions: Any events (RMP n = 10, All grade) | Adverse events: Any events (RMP n = 10, All grade)
5 (50.0) n (%): Adverse drug reactions: Decreased appetite (RMP n = 10, All grade) | Adverse drug reactions: General disorders and administration site conditions (RMP n = 10, All grade) | Adverse drug reactions: Metabolism and nutrition disorders (RMP n = 10, All grade)
6 (14.0) n (%): Adverse drug reactions: ALT increased (SAP n = 43, All grade)
8 (80.0) n (%): Adverse drug reactions: GI disorders (RMP n = 10, All grade) | Adverse drug reactions: Stomatitis (RMP n = 10, All grade) | Adverse events: Stomatitis (RMP n = 10, All grade)
4 (40.0) n (%): Adverse drug reactions: Pruritus (RMP n = 10, All grade) | Adverse drug reactions: Pyrexia (RMP n = 10, All grade) | Adverse events: Nausea (RMP n = 10, All grade) | Adverse events: Pruritus (RMP n = 10, All grade)
3 (30.0) n (%): Adverse drug reactions: Hyperglycemia (RMP n = 10, All grade) | Adverse drug reactions: Nausea (RMP n = 10, All grade) | Adverse drug reactions: Neutrophil count decreased (RMP n = 10, All grade) | Adverse drug reactions: WBC count decreased (RMP n = 10, All grade) | Adverse events: Diarrhea (RMP n = 10, All grade) | Adverse events: Hyperglycemia (RMP n = 10, All grade) | Adverse events: Neutrophil count decreased (RMP n = 10, All grade) | Adverse events: WBC count decreased (RMP n = 10, All grade) | Adverse drug reactions: Investigations (RMP n = 10, ≥ Grade 3) | Adverse drug reactions: Rash maculo-papular (RMP n = 10, ≥ Grade 3) | Adverse drug reactions: Skin and SC tissue disorders (RMP n = 10, ≥ Grade 3) | Adverse events: Investigations (RMP n = 10, ≥ Grade 3) | Adverse events: Rash maculo-papular (RMP n = 10, ≥ Grade 3) | Adverse events: Skin and SC tissue disorders (RMP n = 10, ≥ Grade 3)
7 (70.0) n (%): Adverse events: Decreased appetite (RMP n = 10, All grade) | Adverse events: Investigations (RMP n = 10, All grade) | Adverse events: Metabolism and nutrition disorders (RMP n = 10, All grade) | Adverse events: Any events (RMP n = 10, ≥ Grade 3)
one of the three patients: DLT (grade 3 maculopapular rash) during Cycle 1 (RMP dose level 5 (32 mg), intermittent administration)
9 (90.0) n (%): Adverse drug reactions: Rash maculo-papular (RMP n = 10, All grade) | Adverse drug reactions: Skin and SC tissue disorders (RMP n = 10, All grade) | Adverse events: GI disorders (RMP n = 10, All grade) | Adverse events: General disorders and administration site conditions (RMP n = 10, All grade) | Adverse events: Rash maculo-papular (RMP n = 10, All grade) | Adverse events: Skin and SC tissue disorders (RMP n = 10, All grade)
1 (10.0) n (%): Adverse drug reactions: AST increased (RMP n = 10, All grade) | Adverse drug reactions: Blood AP increased (RMP n = 10, All grade) | Adverse drug reactions: Dry skin (RMP n = 10, All grade) | Adverse drug reactions: Vomiting (RMP n = 10, All grade) | Adverse events: ALT increased (RMP n = 10, All grade) | Adverse events: Blood AP increased (RMP n = 10, All grade) | Adverse events: Dry skin (RMP n = 10, All grade) | Adverse drug reactions: GGT increased (RMP n = 10, ≥ Grade 3) | Adverse events: Diarrhea (RMP n = 10, ≥ Grade 3) | Adverse events: GGT increased (RMP n = 10, ≥ Grade 3)
